According to PubChem BioAssay AID330 (DTP/NCI, 2004):
“And” between values parts separate entries of the source, which are not always exact repeats. Equal entries are not always repeated. Toxic doses and inconclusive results are not listed. How the source made its calls: active means survival T/C of 150% or more; inactive means T/C below 125% in these data.

Tested on: P388 leukemia ip, CD2F1 mice, survival T/C
Assay: NCI In Vivo Anticancer Drug Screen. Data for tumor model P388 Leukemia (intraperitoneal) in CD2F1 (CDF1) mice
Settings: endpoint: median survival time, higher = longer survival
Procedure, shortened: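 Mice carrying the transplanted tumor received test compound or vehicle. Survival was recorded in each group, and the value is the treated-group measurement divided by that of the vehicle-treated control group.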

[1] = dose: 50.0 mg/kg/injection, schedule: Q01DX009 (ip), vehicle: saline with Tween-80
[2] = dose: 60.0 mg/kg/injection, schedule: Q01DX005 (ip), vehicle: saline with Tween-80
[3] = dose: 100.0 mg/kg/injection, schedule: Q01DX009 (ip), vehicle: saline with Tween-80
[4] = dose: 120.0 mg/kg/injection, schedule: Q01DX005 (ip), vehicle: saline with Tween-80
[5] = dose: 200.0 mg/kg/injection, schedule: Q01DX009 (ip), vehicle: saline with Tween-80
[6] = dose: 240.0 mg/kg/injection, schedule: Q01DX005 (ip), vehicle: saline with Tween-80
[7] = dose: 50.0 mg/kg/injection, schedule: Q01DX005 (ip), vehicle: saline with Tween-80
[8] = dose: 100.0 mg/kg/injection, schedule: Q01DX005 (ip), vehicle: saline with Tween-80
[9] = dose: 60.0 mg/kg/injection, schedule: Q01DX005 (ip), vehicle: Klucel (hydroxypropylcellulose) (HPC)
[10] = dose: 120.0 mg/kg/injection, schedule: Q01DX005 (ip), vehicle: Klucel (hydroxypropylcellulose) (HPC)
[11] = dose: 50.0 mg/kg/injection, schedule: Q01DX009 (ip), vehicle: Klucel (hydroxypropylcellulose) (HPC)
[12] = dose: 100.0 mg/kg/injection, schedule: Q01DX009 (ip), vehicle: Klucel (hydroxypropylcellulose) (HPC)
[13] = dose: 200.0 mg/kg/injection, schedule: Q01DX009 (ip), vehicle: Klucel (hydroxypropylcellulose) (HPC)
[14] = dose: 100.0 mg/kg/injection, schedule: Q04DX002 (ip), vehicle: saline with Tween-80
[15] = dose: 200.0 mg/kg/injection, schedule: Q04DX002 (ip), vehicle: saline with Tween-80
[16] = dose: 400.0 mg/kg/injection, schedule: Q04DX002 (ip), vehicle: saline with Tween-80
[17] = dose: 200.0 mg/kg/injection, schedule: Q01DX005 (ip), vehicle: saline with Tween-80
[18] = dose: 60.0 mg/kg/injection, schedule: Q01DX005 (ip), vehicle: saline
[19] = dose: 120.0 mg/kg/injection, schedule: Q01DX005 (ip), vehicle: saline
[20] = dose: 50.0 mg/kg/injection, schedule: Q01DX005 (ip), vehicle: Klucel (hydroxypropylcellulose) (HPC)
[21] = dose: 100.0 mg/kg/injection, schedule: Q01DX005 (ip), vehicle: Klucel (hydroxypropylcellulose) (HPC)
[22] = dose: 200.0 mg/kg/injection, schedule: Q01DX005 (ip), vehicle: Klucel (hydroxypropylcellulose) (HPC)

Measured: T/C

CCc1nc(N)nc(N)c1-c1ccc(NC)c(N)c1
inactive: dose: 100.0 mg/kg/injection, schedule: Q04DX002 (ip), vehicle: Klucel (hydroxypropylcellulose) (HPC) 96 % of control | dose: 200.0 mg/kg/injection, schedule: Q04DX002 (ip), vehicle: Klucel (hydroxypropylcellulose) (HPC) 105 % of control

Nc1nc(N)c(N=O)c(Nc2ccc(Br)cc2)n1
inactive: dose: 100.0 mg/kg/injection, schedule: Q04DX003 (ip), vehicle: saline with Tween-80 91 % of control | dose: 400.0 mg/kg/injection, schedule: Q04DX003 (ip), vehicle: saline with Tween-80 95 % of control

Nc1ccc(CCCCc2ccc(S(=O)(=O)F)cc2Cl)c(Cl)c1
inactive: dose: 15.0 mg/kg/injection, schedule: Q01DX005 (ip), vehicle: saline with Tween-80 101 % of control | dose: 30.0 mg/kg/injection, schedule: Q01DX005 (ip), vehicle: saline with Tween-80 118 % of control | [1] 91 % of control | [2] 93 % of control | [3] 99 % of control | [4] 87 % of control | [5] 98 % of control | [6] 92 % of control

CN(C)CCCN1CCC2(CCC(C(C)(C)C)CC2)CC1
inactive: [7] 106 % of control | [8] 116 % of control

c1ccc(-c2nnc3sc4ccccc4n23)cc1
inactive: [9] 105 % of control | [10] 96 % of control | dose: 240.0 mg/kg/injection, schedule: Q01DX005 (ip), vehicle: Klucel (hydroxypropylcellulose) (HPC) 94 % of control

COc1ccc(OC)c(/C=C/c2ccc([N+](=O)[O-])cc2)c1
inactive: [11] 100 % of control | [12] 100 % of control | [13] 86 % of control

O=C1CCC2(CC1)CCc1ccccc1C2=O
inactive: dose: 100.0 mg/kg/injection, schedule: Q01DX001 (ip), vehicle: saline with Tween-80 103 % of control | dose: 200.0 mg/kg/injection, schedule: Q01DX001 (ip), vehicle: saline with Tween-80 97 % of control | dose: 400.0 mg/kg/injection, schedule: Q01DX001 (ip), vehicle: saline with Tween-80 103 % of control

NC(=Nc1ccc(Cl)cc1)N/N=C/c1ccc(Cl)c(Cl)c1
inactive: dose: 25.0 mg/kg/injection, schedule: Q04DX002 (ip), vehicle: saline with Tween-80 103 % of control | dose: 40.0 mg/kg/injection, schedule: Q04DX002 (ip), vehicle: saline with Tween-80 100 % of control | [14] 106 % of control | [15] 107 % of control | [16] 113 % of control

Cc1c(Cc2ccccc2)c(N2CCOCC2)n2c(nc3ccccc32)c1C#N
inactive: [2] 91 % of control | [4] 88 % of control | [6] 91 % of control

CCn1cnc(CC(NC(=O)C(F)(F)F)C(=O)O)c1 (centres undefined)
inactive: [11] 94 % of control | [12] 100 % of control | [13] 98 % of control

COc1ccc2c(c1)CCC1C2=CCS1(=O)=O (centres undefined)
inactive: [7] 103 % of control | [8] 94 % of control | [17] 92 % of control

CSC(=NCCCCCCCCN=C(NC#N)SC)NC#N
inactive: [11] 94 % of control | [12] 102 % of control | [13] 95 % of control

CCOc1nc(=O)[nH]c2c1CCCC2
inactive: [9] 98 % of control | [10] 98 % of control

O=C(O)CNCc1ccc(F)cc1
inactive: dose: 100.0 mg/kg/injection, schedule: Q04DX003 (ip), vehicle: saline 98 % of control | dose: 200.0 mg/kg/injection, schedule: Q04DX003 (ip), vehicle: saline 103 % of control | dose: 400.0 mg/kg/injection, schedule: Q04DX003 (ip), vehicle: saline 102 % of control | dose: 600.0 mg/kg/injection, schedule: Q04DX003 (ip), vehicle: saline 100 % of control

C[Si](C)(C)C#CC[Si](C)(C)C
inactive: [2] 97 % of control | [4] 100 % of control | [6] 106 % of control

C1OC2C1OC1COC12 (centres undefined)
inactive: [18] 108 % of control | [19] 100 % of control | dose: 240.0 mg/kg/injection, schedule: Q01DX005 (ip), vehicle: saline 107 % of control

CC(=O)NC1=C(O)C2C(c3ccc(Cl)cc3)C(C#N)C(=O)N2C1=O (centres undefined)
inactive: dose: 100.0 mg/kg/injection, schedule: Q01DX001 (ip), vehicle: saline 100 % of control | dose: 200.0 mg/kg/injection, schedule: Q01DX001 (ip), vehicle: saline 103 % of control | dose: 400.0 mg/kg/injection, schedule: Q01DX001 (ip), vehicle: saline 98 % of control

O=C(/C=C/c1ccc(OCC2CO2)cc1)c1cc2ccccc2nc1Cl (centres undefined)
inactive: [14] 100 % of control | [15] 100 % of control | [16] 100 % of control

COc1cc(C(=O)N/N=C/C(=O)O)cc(OC)c1OC
inactive: [20] 101 % of control | [21] 104 % of control | [22] 101 % of control

Cc1cc(O)c(C(c2ccc(C#N)cc2)c2c(O)cc(C)[nH]c2=O)c(=O)[nH]1
inactive: [1] 95 % of control | [3] 94 % of control | [5] 98 % of control

CN(C)CCCOC(=O)Cc1cccc2c(=O)cc(-c3ccccc3)oc12
inactive: dose: 50.0 mg/kg/injection, schedule: Q01DX009 (ip), vehicle: saline 101 % of control | dose: 100.0 mg/kg/injection, schedule: Q01DX009 (ip), vehicle: saline 99 % of control | dose: 200.0 mg/kg/injection, schedule: Q01DX009 (ip), vehicle: saline 118 % of control

CCOC(=O)CCN(CCN(C)C)c1cc(O)c2c(c1O)C(=O)c1ccccc1C2=O
inactive: [7] 121 % of control | [8] 120 % of control

CCOC(=O)C1=C(c2ccccc2)OC(N)=C(C#N)C1c1ccccc1Cl (centres undefined)
inactive: [20] 96 % of control | [21] 105 % of control | [22] 107 % of control

C=C(C)C1CCC(C)CC(=O)C1 (centres undefined)
inactive: dose: 100.0 mg/kg/injection, schedule: Q04DX003 (ip), vehicle: saline + Tween-80 + alcohol 100 % of control | dose: 200.0 mg/kg/injection, schedule: Q04DX003 (ip), vehicle: saline + Tween-80 + alcohol 91 % of control | dose: 400.0 mg/kg/injection, schedule: Q04DX003 (ip), vehicle: saline + Tween-80 + alcohol 91 % of control

CC(C)Cn1c(C(C)C)nc([N+](=O)[O-])c1Sc1ncn[nH]1
inactive: dose: 25.0 mg/kg/injection, schedule: Q01DX005 (ip), vehicle: Klucel (hydroxypropylcellulose) (HPC) 108 % of control | [20] 108 % of control and 118 % of control | [21] 123 % of control

Cc1cc(/C=C2/OC(=O)c3ccccc32)cc(C(C)(C)C)c1O
inactive: dose: 100.0 mg/kg/injection, schedule: Q04DX002 (ip), vehicle: saline 101 % of control | dose: 200.0 mg/kg/injection, schedule: Q04DX002 (ip), vehicle: saline 99 % of control | dose: 400.0 mg/kg/injection, schedule: Q04DX002 (ip), vehicle: saline 101 % of control

Cn1c2ccccc2c(=O)c2c([N+](=O)[O-])ccc(NCCN)c21
inactive: [18] 109 % of control | [19] 114 % of control

Cc1cc(N=C2C=CC(=[N+](C)C)C=C2)c(N)cc1N
inactive: dose: 25.0 mg/kg/injection, schedule: Q01DX009 (ip), vehicle: saline with Tween-80 107 % of control | [1] 107 % of control

CN1C2CCC1c1c([nH]c3ccccc13)C2 (centres undefined)
inactive: [2] 94 % of control | [4] 94 % of control

COC1=C(C(C2=C(OC)CC(C)(C)CC2=O)c2ccc3c(c2)OCO3)C(=O)CC(C)(C)C1
inactive: [2] 102 % of control | [4] 111 % of control | [6] 101 % of control

C=CCNC(=S)N=Nc1c(O)[nH]c2ccccc12
inactive: [1] 94 % of control | [3] 91 % of control | [5] 88 % of control

CCN(CC)Cc1ccccc1CO
inactive: dose: 50.0 mg/kg/injection, schedule: Q01DX005 (ip), vehicle: saline 110 % of control | dose: 100.0 mg/kg/injection, schedule: Q01DX005 (ip), vehicle: saline 106 % of control

Cc1cccc2c1Oc1ccccc1C2NC(=O)c1ccccc1 (centres undefined)
inactive: dose: 12.5 mg/kg/injection, schedule: Q01DX005 (ip), vehicle: saline with Tween-80 86 % of control | dose: 25.0 mg/kg/injection, schedule: Q01DX005 (ip), vehicle: saline with Tween-80 89 % of control | [7] 86 % of control and 88 % of control | [17] 87 % of control
